Experimental findings from article PMC6406179 (F1000Research, 2018) are described below.

What is called IC50 is the point on the concentration scale where inhibition reaches its midpoint. Low readings indicate greater potency, high ones weaker potency.

Where no end group is shown, it is not given here.

The target of the first data set is T1, Mannheimia haemolytica leukotoxin (Lkt) (Mannheimia haemolytica, UniProt P16535).
Test: not given
Conditions: not given
As to CPQLLLLAGLLAL [C5], the “fold better at blocking Lkt-induced cytotoxicity compared to the 13-mer R5 peptide” value is 8 fold.

Another data set has as its target T1, Mannheimia haemolytica leukotoxin (Lkt). The data set can be described thus: cell-based. The following applies: IC50 (uM) aa 4-17.
Regarding QCPQLLLLAGLLAL [Cattle Q4C5], half-maximal inhibition (IC50) required 2.6 ± 0.1 µM. In turn, QCPQVLLLAGLLGL [Eland Q4C5V8G16] had an IC50 of 1.6 ± 0.1 µM. The same measure, in the same setting: under RCPQLLLLAGLLAL [Cattle R4C5] stands 14.5 ± 0.6 µM; under RCPQVLLLAGLLGL [Eland R4C5V8G16], 33.3 ± 1.3 µM.

Still in this data set, the particulars now being: IC50 (uM) aa 5-17.
In turn, CPQVLLLAGLLGL [Eland C5V8G16] gave a half-inhibitory concentration (IC50) of 0.5 ± 0.1 µM. In turn, RPQLLFLSGLLAL [Sheep R5F10S12] showed an IC50 of 16.1 ± 1 µM. Regarding RPQLLLLAGLLAL [R5], the IC50 came to 12.1 ± 0.6 µM.

Substance RPQLLLLAGLLSL [Water Buffalo R5S16] gave an IC50 of 13.9 ± 1 µM.

Still in this data set, the particulars now being: IC50 (μM).
Turning to CPQLLLL [(B) 5-11], inhibition was half-maximal at 56.2 ± 5 µM (IC50). Turning to CPQLLLLA [(B) 5-12], 51.5 ± 5.7 µM corresponded to half-maximal inhibition (IC50).

As for CPQLLLLAG [(B) 5-13], it took 27.8 ± 2 µM to reach half-maximal inhibition (IC50). On the same count and under the same terms, then CPQLLLLAGL [(B) 5-14], with 6.7 ± 0.5 µM; and CPQLLLLAGLL [(B) 5-15], with 2.8 ± 0.2 µM. Still for that read-out and setting: then CPQLLLLAGLLA [(B) 5-16], with 0.6 ± 0.1 µM; and CPQLLLLAGLLAL [C5], with 1.5 ± 0.1 µM; and MLRQCPQLLLLAGLLALQSVLS [R3C5], with 6.8 ± 0.5 µM. The same measure, in the same setting: under MLRQRPQLLLLAGLLALQSVLS [R3R5] stands 12.7 ± 0.6 µM; under RPQLLLL [(A) 5-11], 64.8 ± 7.4 µM. As for RPQLLLLA [(A) 5-12], half-maximal inhibition (IC50) was put at 81.8 ± 13.6 µM.

Turning to RPQLLLLAG [(A) 5-13], half-maximal inhibition (IC50) was put at 75 ± 11.3 µM.

In turn, RPQLLLLAGL [(A) 5-14] displayed an IC50 of 23.1 ± 1.3 µM.

As to RPQLLLLAGLL [(A) 5-15], the IC50 was 26.4 ± 1.7 µM. RPQLLLLAGLLA [(A) 5-16] returned an IC50 of 18 ± 0.8 µM. RPQLLLLAGLLAL [R5] displayed an IC50 of 13.7 ± 0.6 µM.

Staying with this data set, now noted: IC50, concentration of peptide needed to block 50% of Lkt-induced cytolysis of BL3 cells.
Consider MLHQRPQLLLLAGLLALQSVLS [H3R5], for which inhibition was half-maximal at 21.6 µM (IC50). The same measure, in the same setting: under MLRQCPQLLLLAGLLALQSVLS [R3C5] stands 5.9 µM; under MLRQRPQLLLLAGLLALQSVLS [R3R5], 17.9 µM.
